Several values for one entry are separate records, joined by “and”; a condition that tells them apart may be missing. Identical values can stand only once. Entries after “also recorded” stand apart in the source; their conditions may differ. Each block holds one compound with its values, some of them ahead of it.
Experiments:
[1] = tested on: canine intestinal inflammation; test: Canine inflammatory bowel disease activity index (CIBDAI) around Adriamycin dosing; format: in vivo, dog; set-up: key to CIBDAI C. Vomiting: 0 = none; 1 = mild (1 episode/week); 2 = moderate (2-3 episodes/week); 3 = severe (>3 episodes/week); key to CIBDAI A. Attitude/activity / CIBDAI B. Appetite / CIBDAI E. Stool frequency: 0 = normal; 1 = slightly decreased; 2 = moderately decreased; 3 = severely decreased
Method: (§1) The criteria used for the scoring in the table is found at the bottom of the table. Dogs in the study were given a “palliative” Adriamycin dosage (30 mg/m2, IV every 14 days). Symptoms related to intestinal inflammation are expected in fewer than 10% of treated dogs.

fecal α-1PI = test: Fecal alpha(1)-proteinase inhibitor ELISA following Adriamycin; format: in vivo, dog;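 as to m α-1PI - pd. 1: unit µg per g of feces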;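 as to m α-1PI - pd. 2: unit µg per g of feces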
Method: Fecal alpha(1)-proteinase inhibitor (α-1PI) clearance is a reliable, noninvasive marker for protein-losing enteropathy in animals and canines. Furthermore, the canine gut is a good model for the human gut, so results of testing on dogs can be considered relevant to humans. In this example, a number of dogs were tested. Fecal samples were collected daily for 3 days following each Adriamycin administration. An ELISA was used to measure α-1PI concentrations in fecal extracts.
Fecal samples were available for analysis following both chemotherapy treatments from 13 dogs.

[2] = tested on: hepatic demethylation capacity; conditions: dog, in vivo
Method: A ^13C-aminopyrine demethylation blood test was performed in 16 dogs before and after undergoing chemotherapy with doxorubicin for malignant neoplasia. A baseline blood sample of 1 ml was taken, followed by intravenous injection of 2 mg/kg ^13C-aminopyrine and collection of another 1 ml blood sample at 45 minutes after ^13C-aminopyrine administration. Blood samples were immediately placed into vacutainer tubes containing 2 ml of 6M hydrochloric acid and the percent dose of the ^13C administered as ^13C-aminopyrine was determined based on fractional mass spectrometry. […] A p-value <0.05 was considered statistically significant.

[3] = tested on: dogs with malignant tumors; conditions: cited from earlier work
[4] = tested on: canine intestinal inflammation; test: Canine inflammatory bowel disease activity index (CIBDAI) around Adriamycin dosing; format: in vivo; set-up: key: 0 = normal; 1 = slightly decreased; 2 = moderately decreased; 3 = severely decreased; conditions: one line per dog
Method: as §1

[5] = tested on: canine intestinal inflammation; test: as above; format: in vivo; set-up: key: 0 = normal; 1 = slightly soft faeces or faecal blood, mucus or both; 2 = very soft faeces; 3 = watery diarrhea; conditions: one line per dog
Method: as §1

[6] = tested on: irinotecan-induced diarrhea; conditions: irinotecan weekly 125 mg/m^2; strict adherence to high-dose loperamide; fell from 56; cited from earlier work
[7] = tested on: chemotherapy-induced diarrhea; conditions: 41 5-FU-treated patients; standard-dose loperamide; cited from earlier work
[8] = tested on: diarrhea following chemotherapy in dogs; conditions: dog, in vivo
Method: 32 dogs presented with diarrhea following the administration of a chemotherapy agent such as doxorubicin, cytoxan, vincristine, lomustine, and others for a minimum period of 48 hours. CASAD in 500 mg tables was given orally to the cancer-treated dogs four times a day (q.i.d.). Other pharmaceutical agents or medications, as shown below, were also administered to certain dogs according to Best Clinical Practices, using usual, customary dosing. To the extent permitted by scheduling, CASAD and the other medication were given concurrently.

[9] = tested on: pregnant Sprague-Dawley rats; test: Dietary clay toxicity and trace metal bioavailability in pregnant rats; conditions: rat, in vivo
Method: In animal studies with calcium montmorillonite clay, no adverse effects from clay treatment, at levels up to 2.0% (w/w) in the diet, have been reported. In recent studies in rodents, calcium montmorillonite clay were evaluated for potential toxicity and trace metal bioavailability in pregnant Sprague-Dawley rats throughout the period of gestation following high level exposure in the diet (2.0% w/w). Clays were supplemented in the balanced diet of Sprague-Dawley rats during pregnancy at a level of 2.0% (w/w). Evaluations of toxicity were performed on gestation day 16 and included maternal body weights, maternal feed intakes, litter weights, in addition to embryonic resorptions. Liver and, kidneys, tibia, brain, uterus, pooled placental, and pooled embryonic mass were collected and weighed. Tissue were lyophilized and neutron activation analysis (NAA) was then performed. Elements considered by NAA included: Al, Br, Ca, Ce, Co, Cr, Cs, Cu, Dy, Eu, Fe, Hf, K, La, Lu, Mg, Mn, Na, Nd, Ni, Rb, S, Sb, Sc, Se, Sm, Sr, Ta, Th, Te, Th, Ti, Tl, U, V, Yb, Zn, and Zr. Inductively coupled plasma-mass spectroscopy further confined that Al was below detection limits (0.5 ppm) in the brain, indicating no significant bioavailability of this metal from clay interactions in the GI tract. […]

Compound: Cc1ncc([N+](=O)[O-])n1CCO [Flagyl, metronidazole]
time to resolution of diarrhea ([1]; Dog 2, diarrhea started Day 21 after Adria 2): with Flagyl, resolved in 2 days

Compound: COc1cccc2c1C(=O)c1c(O)c3c(c(O)c1C2=O)C[C@@](O)(C(=O)CO)C[C@@H]3O[C@H]1C[C@H](N)[C@H](O)[C@H](C)O1 [doxorubicin]
fecal α-1PI concentrations, comparison of the two treatments (fecal α-1PI; 13 dogs): not significantly different
m α-1PI - pd. 1 (fecal α-1PI; one line per dog, fecal samples 3 days following first Adriamycin administration): 0 micro g/g of feces (5×) and 9.38 micro g/g of feces and 1.38 micro g/g of feces and 2.83 micro g/g of feces and 0.7 micro g/g of feces and 4.2 micro g/g of feces and 6.85 micro g/g of feces and 0.47 micro g/g of feces and 13.23 micro g/g of feces
m α-1PI - pd. 2 (fecal α-1PI; one line per dog, fecal samples 3 days following second Adriamycin administration): 21.29 micro g/g of feces and 0 micro g/g of feces (3×) and 3.76 micro g/g of feces and 1.34 micro g/g of feces and 1.7 micro g/g of feces and 0.85 micro g/g of feces and 0.53 micro g/g of feces and 14.26 micro g/g of feces and 4.57 micro g/g of feces and 1.83 micro g/g of feces and 1.3 micro g/g of feces
CIBDAI A. Attitude/activity ([1]; Post Adria 1, 30 mg/m2 IV every 14 days, one line per dog): A.0 (11×) and A.1 (2×)
CIBDAI B. Appetite ([1]; Post Adria 1, one line per dog): B.0 (11×) and B.2 (2×)
CIBDAI C. Vomiting ([1]; Post Adria 1, one line per dog): C.1 (1 = mild (1 episode/week)) (2×) and C.0 (9×) and C.2 (2 = moderate (2-3 episodes/week)) (2×)
CIBDAI E. Stool frequency ([1]; Post Adria 1, one line per dog): E.0 (11×) and E.2 (2 = moderately increased (4-5 times/day)) and E.1 (1 = slightly increased (2-3 times/day))
CIBDAI A. Attitude/activity ([1]; Post Adria 2, one line per dog): A.0 (10×) and A.3 and A.2 and A.1
CIBDAI B. Appetite ([1]; Post Adria 2, one line per dog): B.0 (9×) and B.2 (2×) and B.3 and B.1
CIBDAI C. Vomiting ([1]; Post Adria 2, one line per dog): C.0 (11×) and C.1 (1 = mild (1 episode/week)) (2×)
CIBDAI E. Stool frequency ([1]; Post Adria 2, one line per dog): E.2 (2 = moderately increased (4-5 times/day)) (2×) and E.0 (11×)
CIBDAI A. Attitude/activity ([1]; Pre Adria 2, one line per dog): A.0
CIBDAI B. Appetite ([1]; Pre Adria 2, one line per dog): B.0 (12×) and B.1
CIBDAI C. Vomiting ([1]; Pre Adria 2, one line per dog): C.0
CIBDAI E. Stool frequency ([1]; Pre Adria 2, one line per dog): E.0
CIBDAI F. Weight loss ([1]; Pre Adria 2, one line per dog): F.0
observations noted per dog after Adriamycin ([1]; notes under the dog's scores, listed as Adria): Day 21 - Lethargic for 1 week after; also recorded: Day 21 - Owner reported dumpty for 3 days post Adria #2; also recorded: Day 21 - Diarrhea started, treated; also recorded: Patient was euthanized 5 days after initial; also recorded: Day 7 - Diarrhea,; also recorded: Day 21 - Diarrhea for 3 days,; also recorded: Adria #2 delayed due to vomiting, diarrhea,
mean ±SD clearance at 45 minutes after 13C-aminopyrine administration [2]: 0.09562±0.0074
dogs that died as a direct result of doxorubicin-induced toxicosis ([3]; 185 dogs, 30 mg/m^2 iv once or twice at 21-day interval): 7 dogs
likelihood of toxicosis after second dose in dogs with signs after first dose ([3]; dog, in vivo): 17.2 times
CIBDAI D. Stool consistency ([4]; Post Adria 1): D.0
CIBDAI D. Stool consistency ([4]; Post Adria 2): D.0
CIBDAI D. Stool consistency ([4]; Pre Adria 2): D.0
CIBDAI D. Stool consistency ([5]; Post Adria 1): D.3 and D.1 and D.2
CIBDAI D. Stool consistency ([5]; Post Adria 2): D.2 and D.3
CIBDAI D. Stool consistency ([5]; Pre Adria 2): D.1

Compound: CN(C)C(=O)C(CCN1CCC(O)(c2ccc(Cl)cc2)CC1)(c1ccccc1)c1ccccc1 [loperamide]
prevalence of grade ¾ diarrhea [6]: 9%
resolution of diarrhea by day three [7]: 15%

Compound: C[C@@H](O)[C@@H]1NC(=O)[C@H](CCCCN)NC(=O)[C@@H](Cc2c[nH]c3ccccc23)NC(=O)[C@H](Cc2ccccc2)NC(=O)[C@@H](NC(=O)[C@H](N)Cc2ccccc2)CSSC[C@@H](C(=O)N[C@H](CO)[C@@H](C)O)NC1=O [octreotide]
resolution of diarrhea by day three [7]: 90%

1 = interaction 0 = noninteraction [8]: 0
dogs with interaction [8]: 0
negative interactions (anorexia, vomiting, nausea, lethargy, anaphylaxis) with additional drugs [8]: No negative interactions
Compound: calcium aluminosilicate [CASAD]

Compound: calcium montmorillonite clay
Al in the brain (ICP-MS) [9]: < 0.5 ppm
brain Rb [9]: decreased brain Rb

Reference: patent US20080026079A1 (priority 2006, published 2008)
